Laboratory results reported in ChEMBL document CHEMBL1201862, “PubChem BioAssay data set” (2004).
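These data come from cells grown in 96-well plates and exposed to compound for 48 hours at five concentrations. At the GI50, growth is halved.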 Calls of active or inactive are those of the source. Cut-off read from the data, not from the text of the source: active = GI50 up to about 1.1 µM and inactive = higher.

Key:
Experiment in all cases: NCI anticancer screen, dose series, 48 h
HOP-92 = system: HOP-92
HCT-15 = system: HCT-15
SK-MEL-2 = system: SK-MEL-2
UACC-257 = system: UACC-257
786-0 = system: 786-0
OVCAR-4 = system: OVCAR-4
TK-10 = system: TK-10
HCT-116 = system: HCT-116
SNB-75 = system: SNB-75
HOP-18 = system: HOP-18
RPMI-8226 = system: RPMI-8226
SN12C = system: SN12C
SW-620 = system: SW-620
KM-20L2 = system: KM-20L2
HOP-62 = system: HOP-62
SF-295 = system: SF-295
UO-31 = system: UO-31
IGROV-1 = system: IGROV-1
NCI-H522 = system: NCI-H522
OVCAR-5 = system: OVCAR-5
DMS-273 = system: DMS-273
ACHN = system: ACHN
COLO 205 = system: COLO 205
XF498 = system: XF498
NCI-H460 = system: NCI-H460
DMS-114 = system: DMS-114
LOX IMVI = system: LOX IMVI
NCI-H23 = system: NCI-H23
OVCAR-8 = system: OVCAR-8
HCC 2998 = system: HCC 2998
CCRF-CEM = system: CCRF-CEM
SK-OV-3 = system: SK-OV-3
HL-60 = system: HL-60
SF-268 = system: SF-268
A549 = system: A549
K562 = system: K562
SR = system: SR
SNB-19 = system: SNB-19
Malme-3M = system: Malme-3M
DLD-1 = system: DLD-1
M14 = system: M14
A498 = system: A498
SK-MEL-5 = system: SK-MEL-5
HT-29 = system: HT-29
MOLT-4 = system: MOLT-4
CAKI-1 = system: CAKI-1
UACC-62 = system: UACC-62
M19-MEL = system: M19-MEL
EKVX = system: EKVX
SK-MEL-28 = system: SK-MEL-28
SNB-78 = system: SNB-78
SF-539 = system: SF-539
NCI-H226 = system: NCI-H226
KM12 = system: KM12
OVCAR-3 = system: OVCAR-3
RXF 631 = system: RXF 631
U-251 = system: U-251
RXF 393 = system: RXF 393
LXFL 529 = system: LXFL 529

Measured: GI50

CC1COS(=O)O1 (stereo not drawn)
> 100 µM: HCT-15
inactive: HOP-92 > 100 µM | SK-MEL-2 > 100 µM | UACC-257 > 100 µM | 786-0 > 100 µM | OVCAR-4 > 100 µM | TK-10 > 100 µM | HCT-116 > 100 µM | SNB-75 63 µM | HOP-18 > 100 µM | RPMI-8226 > 100 µM | SN12C > 100 µM | SW-620 > 100 µM | KM-20L2 > 100 µM | HOP-62 > 100 µM | SF-295 > 100 µM | UO-31 > 100 µM | IGROV-1 > 100 µM | NCI-H522 > 100 µM | OVCAR-5 > 100 µM | DMS-273 > 100 µM | ACHN > 100 µM | COLO 205 > 100 µM | XF498 > 100 µM | NCI-H460 > 100 µM | DMS-114 > 100 µM | LOX IMVI > 100 µM | NCI-H23 > 100 µM | OVCAR-8 > 100 µM | HCC 2998 > 100 µM | CCRF-CEM > 100 µM | SK-OV-3 > 100 µM | HL-60 > 100 µM | SF-268 > 100 µM | A549 > 100 µM | K562 > 100 µM | SR > 100 µM | SNB-19 > 100 µM | Malme-3M > 100 µM | DLD-1 > 100 µM | M14 > 100 µM | A498 > 100 µM | SK-MEL-5 > 100 µM | HT-29 > 100 µM | MOLT-4 > 100 µM | CAKI-1 > 100 µM | UACC-62 > 100 µM | M19-MEL > 100 µM | EKVX > 100 µM | SK-MEL-28 > 100 µM | SNB-78 > 100 µM | SF-539 > 100 µM | NCI-H226 > 100 µM | KM12 > 100 µM | OVCAR-3 > 100 µM

Clc1cc(Cl)cc(C2SCc3nc4ccccc4n32)c1 (stereo not drawn)
inactive: HOP-92 14.4 µM | RXF 631 14.2 µM | SK-MEL-2 17.6 µM | UACC-257 15.2 µM | 786-0 15.6 µM | TK-10 27.7 µM | HCT-116 > 10 µM | SNB-75 43.4 µM | HOP-18 28.4 µM | RPMI-8226 11.5 µM | SN12C 15.2 µM | SW-620 11 µM | U-251 14 µM | SF-295 14.5 µM | UO-31 19.3 µM | NCI-H522 14.3 µM | OVCAR-5 18.1 µM | DMS-273 7.28 µM | ACHN 22.9 µM | COLO 205 18.2 µM | NCI-H460 14.3 µM | DMS-114 13.6 µM | NCI-H23 17 µM | OVCAR-8 17 µM | HCC 2998 > 10 µM | RXF 393 14.6 µM | CCRF-CEM 9.79 µM | SK-OV-3 22.8 µM | LXFL 529 14.4 µM | HL-60 4.31 µM | SF-268 20.4 µM | A549 19.6 µM | K562 3.82 µM | SR 17.2 µM | SNB-19 20.7 µM | Malme-3M 15.8 µM | DLD-1 > 10 µM | SK-MEL-5 12.7 µM | HT-29 12 µM | MOLT-4 11.7 µM | CAKI-1 14.9 µM | UACC-62 21.5 µM | EKVX 22.6 µM | SK-MEL-28 13.8 µM | SNB-78 6.03 µM | SF-539 11.1 µM | NCI-H226 19.9 µM | KM12 13.6 µM | OVCAR-3 16.9 µM

CNC(=O)NCNC(=O)NC
> 100 µM: HCT-15
inactive: HOP-92 > 100 µM | RXF 631 > 100 µM | SK-MEL-2 > 100 µM | UACC-257 > 100 µM | 786-0 > 100 µM | OVCAR-4 > 100 µM | TK-10 > 100 µM | HCT-116 > 100 µM | SNB-75 > 100 µM | HOP-18 > 100 µM | RPMI-8226 > 100 µM | SW-620 > 100 µM | KM-20L2 > 100 µM | HOP-62 > 100 µM | U-251 > 100 µM | SF-295 > 100 µM | IGROV-1 > 100 µM | OVCAR-5 > 100 µM | DMS-273 > 100 µM | COLO 205 > 100 µM | NCI-H460 > 100 µM | DMS-114 > 100 µM | LOX IMVI > 100 µM | NCI-H23 > 100 µM | OVCAR-8 > 100 µM | HCC 2998 > 100 µM | CCRF-CEM > 100 µM | SK-OV-3 > 100 µM | LXFL 529 > 100 µM | HL-60 > 100 µM | A549 > 100 µM | K562 > 100 µM | Malme-3M > 100 µM | DLD-1 > 100 µM | M14 > 100 µM | A498 > 100 µM | SK-MEL-5 > 100 µM | HT-29 > 100 µM | MOLT-4 > 100 µM | CAKI-1 > 100 µM | UACC-62 > 100 µM | M19-MEL > 100 µM | EKVX > 100 µM | SK-MEL-28 > 100 µM | SNB-78 > 100 µM | SF-539 > 100 µM | KM12 > 100 µM | OVCAR-3 > 100 µM
